Source: ChEMBL document CHEMBL1201862, “PubChem BioAssay data set” (2004)
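How tested: cells in 96-well plates exposed to compound for 48 hours at five concentrations. Here, GI50 denotes the concentration required for 50% inhibition of growth.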 Calls of active or inactive are those of the source. Cut-off read from the data, not from the text of the source: active = GI50 up to about 1.1 µM and inactive = higher.

Key:
Experiment in all cases: growth of human tumour cells (NCI), 48 h
[1] = test system: 786-0
[2] = test system: A498
[3] = test system: A549
[4] = test system: ACHN
[5] = test system: BT-549
[6] = test system: CAKI-1
[7] = test system: CCRF-CEM
[8] = test system: COLO 205
[9] = test system: DU-145
[10] = test system: EKVX
[11] = test system: HCC 2998
[12] = test system: HCT-116
[13] = test system: HCT-15
[14] = test system: HL-60
[15] = test system: HOP-62
[16] = test system: HOP-92
[17] = test system: HT-29
[18] = test system: Hs-578T
[19] = test system: IGROV-1
[20] = test system: K562
[21] = test system: KM12
[22] = test system: LOX IMVI
[23] = test system: M14
[24] = test system: MCF7
[25] = test system: MDA-MB-231
[26] = test system: MDA-MB-435
[27] = test system: MDA-N
[28] = test system: MOLT-4
[29] = test system: Malme-3M
[30] = test system: NCI-H226
[31] = test system: NCI-H23
[32] = test system: NCI-H460
[33] = test system: NCI-H522
[34] = test system: NCI/ADR-RES
[35] = test system: OVCAR-3
[36] = test system: OVCAR-4
[37] = test system: OVCAR-5
[38] = test system: OVCAR-8
[39] = test system: PC-3
[40] = test system: RXF 393
[41] = test system: SF-268
[42] = test system: SF-295
[43] = test system: SF-539
[44] = test system: SK-MEL-28
[45] = test system: SK-MEL-2
[46] = test system: SK-MEL-5
[47] = test system: SK-OV-3
[48] = test system: SN12C
[49] = test system: SNB-19
[50] = test system: SNB-75
[51] = test system: SR
[52] = test system: SW-620
[53] = test system: T47D
[54] = test system: TK-10
[55] = test system: U-251
[56] = test system: UACC-257
[57] = test system: UACC-62
[58] = test system: UO-31

`O=C1Nc2ccccc2C1=Nc1ccc(S(=O)(=O)Nc2nccs2)cc1` was tested, and the GI50 [1] was > 100 µM (inactive), the GI50 [2] was > 100 µM (inactive) and the GI50 [3] was > 100 µM (inactive). For the same compound, the GI50 [4] was > 100 µM (inactive), the GI50 [5] was > 100 µM (inactive) and the GI50 [6] was > 100 µM (inactive). For the same compound, the GI50 [7] was > 100 µM (inactive), the GI50 [8] was > 100 µM (inactive) and the GI50 [9] was > 100 µM (inactive). For the same compound, the GI50 [10] was > 100 µM (inactive), the GI50 [11] was > 100 µM (inactive) and the GI50 [12] was > 100 µM (inactive). For the same compound, the GI50 [13] was > 100 µM, the GI50 [14] was > 100 µM (inactive) and the GI50 [15] was > 100 µM (inactive). For the same compound, the GI50 [16] was > 100 µM (inactive), the GI50 [17] was > 100 µM (inactive) and the GI50 [18] was > 100 µM (inactive). For the same compound, the GI50 [19] was > 100 µM (inactive), the GI50 [20] was > 100 µM (inactive) and the GI50 [21] was > 100 µM (inactive). The GI50 [22] was > 100 µM (inactive), the GI50 [23] was > 100 µM (inactive) and the GI50 [24] was > 100 µM (inactive). The GI50 [25] was > 100 µM (inactive), the GI50 [26] was 92.5 µM (inactive) and the GI50 [27] was > 100 µM (inactive). For the same compound, the GI50 [28] was > 100 µM (inactive), the GI50 [29] was > 100 µM (inactive) and the GI50 [30] was > 100 µM (inactive). For the same compound, the GI50 [31] was > 100 µM (inactive), the GI50 [32] was > 100 µM (inactive) and the GI50 [33] was > 100 µM (inactive). The GI50 [34] was > 100 µM (inactive), the GI50 [35] was > 100 µM (inactive) and the GI50 [36] was > 100 µM (inactive). The GI50 [37] was > 100 µM (inactive), the GI50 [38] was > 100 µM (inactive) and the GI50 [39] was > 100 µM (inactive). For the same compound, the GI50 [40] was > 100 µM (inactive), the GI50 [41] was > 100 µM (inactive) and the GI50 [42] was > 100 µM (inactive). The GI50 [43] was 48.3 µM (inactive), the GI50 [44] was > 100 µM (inactive) and the GI50 [45] was > 100 µM (inactive). For the same compound, the GI50 [46] was > 100 µM (inactive), the GI50 [47] was > 100 µM (inactive) and the GI50 [48] was > 100 µM (inactive). The GI50 [49] was > 100 µM (inactive), the GI50 [50] was > 100 µM (inactive) and the GI50 [51] was 51.8 µM (inactive). For the same compound, the GI50 [52] was > 100 µM (inactive), the GI50 [53] was > 100 µM (inactive) and the GI50 [54] was > 100 µM (inactive). The GI50 [55] was > 100 µM (inactive), the GI50 [56] was > 100 µM (inactive) and the GI50 [57] was > 100 µM (inactive). For the same compound, the GI50 [58] was > 100 µM (inactive).
